Measured values from patent publication US20200345725A1, “Methods and Compositions for Treating Cancer” (Omeros Corporation, priority 2019, published 2020).
Where “and” joins values, the source holds several entries; their conditions need not be identical. Equal entries are not always repeated. Marks after values point to notes of the source that are not given here. One block for each compound: values may come before it.

Key:
Format in all cases: cell-based
[1] = target: T1, ADBR2 (Homo sapiens, UniProt P07550); assay: CRE-Luc reporter assay with control receptor ADBR2
T1 construct: host or cells: HEK293 or CHO cell lines (ATCC)
Protocol: The DNA/lipofectamine 2000 mix (3000 μL) was incubated at room temperature for 30 minutes and then added into a 10 cm culture dish (Corning, NY) containing 70-90% confluent cultured cells, (HEK293 or CHO cell lines (ATCC, VA)), in 15 mL of media. […] The cells were further incubated at 37° C. for various times. The media were removed and the cells lysed.
Compounds were tested in the reporter system with increasing concentrations of GPR174-interacting compounds.
The DNA/lipofectamine 2000 mix (3000 μL) was incubated at room temperature for 30 minutes and then added into a 10 cm culture dish (Corning, NY) containing 70-90% confluent cultured cells, typically HEK293 or CHO cell lines (ATCC, VA), in 15 mL of media. […] Media (26 mL) were added to the detached cells and 120 μL of transfected cells were transferred to each well on a 96-well plate. Increasing concentration of each compound in DMSO (1.2 μl) was added to the cells after plating into the 96-well plate. The cells were further incubated at 37° C. for various times. The media were removed, and the cells lysed.
ADBR2 is a GPCR, like GPR174, that activates the Gs signaling pathway.

[2] = target: T2, GPR174 (Homo sapiens, UniProt Q9BXC1); assay: CRE-Luc reporter Gs signaling assay with GPR174; set-up: host or cells: HEK293 or CHO cell lines (ATCC); settings: for Gs pathway in the presence of GPR174 (CRE-Luc reporter): increasing concentrations of compound; for Fold decrease in Gs signaling activity / EC50 / Human GPR174 CRE Activity: nature of the compound (IA, antagonist, NM): pCRE-Luc reporter; for EC50: multiple values = separate experiments
Target sequence in this assay (Q9BXC1 whole entry): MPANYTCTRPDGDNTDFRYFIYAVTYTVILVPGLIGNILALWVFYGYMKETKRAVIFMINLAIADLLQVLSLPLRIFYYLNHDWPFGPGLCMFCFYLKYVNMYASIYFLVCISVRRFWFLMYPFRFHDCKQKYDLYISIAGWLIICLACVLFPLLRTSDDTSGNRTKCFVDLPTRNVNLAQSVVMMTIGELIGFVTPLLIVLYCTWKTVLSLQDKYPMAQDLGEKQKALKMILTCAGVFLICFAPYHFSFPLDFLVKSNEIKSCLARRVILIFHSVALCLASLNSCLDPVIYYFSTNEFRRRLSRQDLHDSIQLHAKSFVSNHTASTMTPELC

[3] = target: T2, GPR174; assay: Cellular redistribution assay (CRA) for GPR174; settings: multiple values = separate experiments
Text: One method for identifying compounds capable of modulating a receptor is using a cellular redistribution assay (“CRA”). Exemplary CRA methods are found in U.S. Pat. No. 7,309,576 issued to O'Dowd et al. and in O'Dowd et al., J. Biomol. Screen. 12:175-85,2007. […] Incorporation of the NLS alters the cellular localization of the GPCR, such that the majority of the NLS-modified receptor is present in the cell interior. An NLS-modified GPCR, when interacting with a functionally active compound, is mostly localized on the cell surface. Thus, it becomes possible to identify receptor modulators without knowledge of the endogenous ligand or a surrogate ligand.
The inventors have identified a number of compounds that inhibit GPR174 using a CRA assay similar to that described in U.S. Pat. No. 7,309,576 and in O'Dowd et al., J. Biomol. Screen. 12:175-85, 2007. These compounds are described in detail below.
The inventors used a CRA similar to that described in U.S. Pat. No. 7,309,576 and O'Dowd et al., J. Biomol. Screen. 12:175-85, 2007 to identify compounds that are capable of interacting with GPR174 using a library of approximately 370,000 chemical entities. Briefly described, the CRA assay described in U.S. Pat. No. 7,309,576 involves artificially inserting a NLS into the dopamine D1 receptor (DRD1), which allows the receptor to traffic from the cell membrane to the cell interior, and that the binding of antagonists to the receptor retained the receptor at the cell surface, while removal of the ligand allowed the receptor to continue to internalize from the cell surface. Both antagonists and agonists that selectively bound the receptor retained the receptor on the plasma membrane. GPR174 constructs were generated for use in a CRA-based compound screening assay. From this screen, the inventors initially identified compounds of formula I-VI, as described herein and included in Table 1.
Target sequence in this assay (Q9BXC1 1-292 limits assumed): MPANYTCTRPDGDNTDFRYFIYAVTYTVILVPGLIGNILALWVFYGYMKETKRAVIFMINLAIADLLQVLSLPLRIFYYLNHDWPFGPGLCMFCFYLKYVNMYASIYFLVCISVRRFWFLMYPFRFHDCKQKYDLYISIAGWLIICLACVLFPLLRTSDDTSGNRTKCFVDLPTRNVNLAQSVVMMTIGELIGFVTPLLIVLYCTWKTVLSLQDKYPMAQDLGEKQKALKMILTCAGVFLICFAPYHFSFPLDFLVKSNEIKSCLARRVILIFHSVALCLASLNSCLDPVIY

[4] = test system: human PBMCs; assay: Th1 cytokines in supernatants of stimulated human PBMC, GPR174 inhibitor with adenosine pathway inhibitors (Examples 15, 18-22); settings: donor 7
Protocol: Human PBMCs, obtained from a human volunteer donor, were dispensed at density of 1×10^6 cells/well in a 96-well flat-bottom plate and were stimulated in triplicate with 1 μg/mL anti-CD3 antibody (UCHT1) and 0.1 μg/mL anti-CD28 antibody (CD28.2) in the presence of:
Supernatants from these cells were collected at 24 hours post-stimulation and the levels of IFN-γ were determined by ELISA assay. Statistical analysis was carried out using one-way ANOVA with Tukey's post-hoc multiple comparison's correction.
Human PBMCs, obtained from a human volunteer donor (donor 1), were dispensed in X-vivo15 media (Lonza) supplemented with Glutamax, penicillin and streptomycin, at density of 1×10^6 cells/well in a 96-well flat-bottom plate and were stimulated with 1 μg/mL anti-CD3 antibody (UCHT1) and 0.1 μg/mL anti-CD28 antibody (CD28.2) in the presence of:
Supernatants from these cells were collected at 24 hours post-stimulation and the levels of IFN-γ, IL-2 and TNF were determined by ELISA assays.
Human PBMCs, obtained from two individual human volunteer donors (donor 2 and donor 3), were dispensed at density of 1×10^6 cells/well in a 96-well flat-bottom plate and were stimulated with 1 μg/mL anti-CD3 antibody (UCHT1) and 0.1 μg/mL anti-CD28 antibody (CD28.2) in the presence of:
Human PBMCs, obtained from twelve individual human volunteer donors were dispensed at density of 1×10^6 cells/well in a 96-well flat-bottom plate and were stimulated in triplicate with 1 μg/mL anti-CD3 antibody (UCHT1) and 0.1 μg/mL anti-CD28 antibody (CD28.2) in the presence of:
A total of 44 experiments using PBMC from 12 healthy donors were tested (9 donors for GM-CSF), with each donor tested in 1 to 8 separate experiments, depending on the donor (1 to 4 experiments each for GM-CSF). […] Cytokines were detected in supernatants with the Legendplex (Biolegend) or the MSB (MesoScale) platforms. […] One-way ANOVA with Tukey's post-hoc multiple comparisons correction was performed to identify significant differences (FC, mean fold change; ****, p<0.0001, ***, p<0.001; **, p<0.01; *, p<0.05, ns, not significant).
Human PBMC (1×10^6 cells/well in a 96-well flat-bottom plate) obtained from donor 3 and donor 6 were stimulated with 1 μg/mL anti-CD3 antibody (UCHT1) and 0.1 μg/mL anti-CD28 antibody (CD28.2) in the presence of:
Supernatants from these cells were collected at 24 hours post-stimulation and the levels of IFN-γ, IL-2, and TNF were determined with the MSD platform (MesoScale Discovery).
Human PBMC (1×10^6 cells/well in a 96-well flat-bottom plate) obtained from donor 7 were stimulated with 1 μg/mL […] (UCHT1) and 0.1 μg/mL anti-CD28 antibody (CD28.2) in the presence of:
Supernatants from these cells were collected at 24 hours post-stimulation and the levels of IFN-γ, IL-2, TNF and GM-CSF were determined with the MSD platform (MesoScale Discovery).
Supernatants from these cells were collected at 24 hours post-stimulation and the levels of IFN-γ, IL-2 and TNF were determined with the MSD platform (MesoScale Discovery).

[5] = high and low concentrations, ZM 0.1 μM
[6] = no ZM, 0.3 μM (compound 20: 3 μM)
[7] = no ZM, 1 μM (compound 20: 10 μM)
[8] = with ZM-241385 0.1 μM, 0.3 μM (compound 20: 3 μM)
[9] = with ZM-241385 0.1 μM, 1 μM (compound 20: 10 μM), label ZM = ZM alone

T1 sequence (P07550 whole entry): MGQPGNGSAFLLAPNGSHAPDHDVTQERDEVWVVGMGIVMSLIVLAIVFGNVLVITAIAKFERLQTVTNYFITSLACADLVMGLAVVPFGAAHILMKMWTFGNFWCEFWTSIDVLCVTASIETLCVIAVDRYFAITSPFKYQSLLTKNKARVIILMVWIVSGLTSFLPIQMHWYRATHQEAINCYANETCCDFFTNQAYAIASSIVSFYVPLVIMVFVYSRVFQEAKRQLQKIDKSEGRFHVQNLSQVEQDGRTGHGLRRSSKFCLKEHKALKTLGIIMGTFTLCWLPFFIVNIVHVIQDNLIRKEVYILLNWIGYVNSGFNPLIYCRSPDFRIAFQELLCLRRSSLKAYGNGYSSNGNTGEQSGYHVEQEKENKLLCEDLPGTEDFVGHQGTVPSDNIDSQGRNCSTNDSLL

Compound: CCOc1ccc(C2C3=C(CCCC3=O)NC3=C2C(=O)c2ccccc23)cc1 (stereo not drawn) [compound 23]
Gs pathway in the presence of ADBR2 (CRE-Luc reporter) [1]: did not inhibit
Gs pathway in the presence of GPR174 (CRE-Luc reporter) [2]: inhibited
Fold decrease in Gs signaling activity [2]: 14.1 fold
EC50 [2]: 0.4 µM and 0.9 µM and 1.2 µM and 1 µM

Gs pathway in the presence of ADBR2 (CRE-Luc reporter) [1]: did not inhibit
Gs pathway in the presence of GPR174 (CRE-Luc reporter) [2]: inhibited
Fold decrease in Gs signaling activity [2]: 10.2 fold
EC50 [2]: 1 µM and 1.5 µM
Compound: COc1ccc(C2C3=C(CCCC3=O)NC3=C2C(=O)c2ccccc23)cc1 (stereo not drawn) [compound 22]

EC50 [3]: > 2 µM
Fold decrease in Gs signaling activity [2]: 2.1 fold
EC50 [2]: 0.7 µM and 0.5 µM
Compound: CCC(=O)N1CCN(c2cc(N3CCCCC3)c(F)cc2[N+](=O)[O-])CC1 [compound 9]

Gs pathway in the presence of ADBR2 (CRE-Luc reporter) [1]: did not inhibit
Gs pathway in the presence of GPR174 (CRE-Luc reporter) [2]: inhibited
Fold decrease in Gs signaling activity [2]: 8.9 fold
EC50 [2]: 1.2 µM
Compound: CCCCOc1ccc(C2C3=C(CCCC3=O)NC3=C2C(=O)c2ccccc23)cc1 (stereo not drawn) [compound 31]

Gs pathway in the presence of ADBR2 (CRE-Luc reporter) [1]: did not modulate
Gs pathway in the presence of GPR174 (CRE-Luc reporter) [2]: did not modulate
Compound: Cc1cc(Cc2ccc(NC(=O)c3cccs3)c(C)c2)ccc1NC(=O)c1cccs1 [compound 21]
Human GPR174 CRE Activity: nature of the compound (IA, antagonist, NM) [2]: GPR174 antagonist or allosteric modulator

Gs pathway in the presence of ADBR2 (CRE-Luc reporter) [1]: did not modulate
Gs pathway in the presence of GPR174 (CRE-Luc reporter) [2]: did not modulate
Human GPR174 CRE Activity: nature of the compound (IA, antagonist, NM) [2]: Antagonist or allosteric modulator
Compound: Cc1ccc(-c2nnc(Nc3ccccc3)c3ccccc23)cc1S(N)(=O)=O [compound 19]

Gs pathway in the presence of ADBR2 (CRE-Luc reporter) [1]: did not inhibit
Gs pathway in the presence of GPR174 (CRE-Luc reporter) [2]: inhibited
Fold decrease in Gs signaling activity [2]: 9.2 fold
EC50 [2]: 4.4 µM
Compound: O=C1CCCC2=C1C(c1ccc(OCCO)cc1)C1=C(N2)c2ccccc2C1=O (stereo not drawn) [compound 33]

Gs pathway in the presence of ADBR2 (CRE-Luc reporter) [1]: did not inhibit
Gs pathway in the presence of GPR174 (CRE-Luc reporter) [2]: inhibited
Fold decrease in Gs signaling activity [2]: 4.3 fold
EC50 [2]: 6.6 µM
Compound: O=C1CCCC2=C1C(c1ccncc1)C1=C(N2)c2ccccc2C1=O (stereo not drawn) [compound 42]

Compound: O=[N+]([O-])c1cc(F)c(N2CCCCC2)cc1N1CCN(S(=O)(=O)c2ccccc2)CC1 [compound 11]
EC50 [3]: > 1.1 µM
Gs pathway in the presence of ADBR2 (CRE-Luc reporter) [1]: did not inhibit
synergy with ZM on GM-CSF (greater than the sum of the increases with each inhibitor alone) [4, 5]: synergized with ZM
synergy with ZM on IFN-γ (greater than the sum of the increases with each inhibitor alone) [4, 5]: synergized with ZM
synergy with ZM on IL-2 (greater than the sum of the increases with each inhibitor alone) [4, 5]: synergized with ZM
synergy with ZM on TNF (greater than the sum of the increases with each inhibitor alone) [4, 5]: synergized with ZM
GM-CSF, ratio relative to vehicle control [4, 6]: 2.9*
IFN-γ, ratio relative to vehicle control [4, 6]: 1.9*
IL-2, ratio relative to vehicle control [4, 6]: 1.4*
TNF, ratio relative to vehicle control [4, 6]: 1.7*
GM-CSF, ratio relative to vehicle control [4, 7]: 2.4*
IFN-γ, ratio relative to vehicle control [4, 7]: 1.8*
IL-2, ratio relative to vehicle control [4, 7]: 1.3
TNF, ratio relative to vehicle control [4, 7]: 1.7*
GM-CSF, ratio relative to vehicle control [4, 8]: 4.4*
IFN-γ, ratio relative to vehicle control [4, 8]: 2.9*
IL-2, ratio relative to vehicle control [4, 8]: 1.8*
TNF, ratio relative to vehicle control [4, 8]: 2.6*
GM-CSF, ratio relative to vehicle control [4, 9]: 4.9*
IFN-γ, ratio relative to vehicle control [4, 9]: 3.4*
IL-2, ratio relative to vehicle control [4, 9]: 1.9*
TNF, ratio relative to vehicle control [4, 9]: 3.0*
Gs pathway in the presence of GPR174 (CRE-Luc reporter) [2]: inhibited
Fold decrease in Gs signaling activity [2]: 3.1 fold
EC50 [2]: 0.5 µM and 1.3 µM and 0.6 µM
